Our source for the pest or weed control, plant injury and Corn plant response rating (crop injury, 0 = no effect, 100 = complete kill) values is US12077503B2, “Substituted cyclic amides and their use as herbicides” (FMC CORPORATION, priority 2015, dated 2024).

What all share (format): in vivo
The subject of test [1] is barnyardgrass (Echinochloa crus-galli). Put plainly: Test A preemergence. As to conditions: Echinochloa crus-galli, pre-emergence, 240 h; for pest or weed control at 125 g/ha: 125 g ai/ha; for pest or weed control at 500 g/ha: 500 g ai/ha. The gist of the method: (§1)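 Preemergence directed soil spray on seeded pots, or postemergence application to plants 2–10 cm, one- to two-leaf. Solvent mixture non-phytotoxic, with surfactant. Scored ~10 d later, visually, 0–100 vs untreated.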

The subject of test [2] is ryegrass, Italian (Italian ryegrass, Lolium multiflorum). Put plainly: Test A preemergence. As to conditions: Lolium multiflorum, pre-emergence, 240 h; for pest or weed control at 125 g/ha: 125 g ai/ha; for pest or weed control at 500 g/ha: 500 g ai/ha. The gist of the method:
as §1

Test [3] has as its system ragweed (common ragweed, Ambrosia elatior). Put plainly: Test A preemergence. As to conditions: Ambrosia artemisiifolia, pre-emergence, 240 h; for pest or weed control at 125 g/ha: 125 g ai/ha; for pest or weed control at 500 g/ha: 500 g ai/ha. The gist of the method: as §1
Test [4] deals with pigweed (Amaranthus retroflexus). Put plainly: Test A preemergence. The conditions noted are these: Amaranthus retroflexus, pre-emergence, 240 h; for pest or weed control at 125 g/ha: 125 g ai/ha; for pest or weed control at 500 g/ha: 500 g ai/ha.
For test [5], the system named is Kochia (Kochia scoparia). Put plainly: Test A preemergence. As to conditions: Bassia scoparia, pre-emergence, 240 h; for pest or weed control at 125 g/ha: 125 g ai/ha; for pest or weed control at 500 g/ha: 500 g ai/ha. The gist of the method: as §1
The subject of test [6] is giant foxtail (Setaria faberii). Description: Test A preemergence. The conditions noted are these: Setaria faberi, pre-emergence, 240 h; for pest or weed control at 125 g/ha: 125 g ai/ha; for pest or weed control at 500 g/ha: 500 g ai/ha. The gist of the method: as §1
The subject of test [7] is blackgrass (Alopecurus myosuroides). Put plainly: Test A postemergence. As to conditions: Alopecurus myosuroides, post-emergence, 240 h, 125 g ai/ha, Postemergence; visual injury after approximately 10 d; 0 to 100 scale where 0 is no effect and 100 is complete control; read-out: Plant response rating, Blackgrass. The gist of the method: as §1
Test [8] deals with Galium (catchweed bedstraw, Galium aparine). Put plainly: Test A postemergence. As to conditions: Galium, post-emergence, 240 h, 125 g ai/ha, Postemergence; visual injury after approximately 10 d; 0 to 100 scale where 0 is no effect and 100 is complete control; read-out: Plant response rating, Galium. The gist of the method: as §1
Test [9] has as its system barnyardgrass (Echinochloa crus-galli). Description: Test A postemergence. The conditions noted are these: Echinochloa crus-galli, post-emergence, 240 h, 125 g ai/ha, Postemergence; visual injury after approximately 10 d; 0 to 100 scale where 0 is no effect and 100 is complete control; read-out: Plant response rating, Barnyardgrass. The gist of the method: as §1
For test [10], the system named is ryegrass, Italian (Italian ryegrass, Lolium multiflorum). Put plainly: Test A postemergence. As to conditions: Lolium multiflorum, post-emergence, 240 h, 125 g ai/ha, Postemergence; visual injury after approximately 10 d; 0 to 100 scale where 0 is no effect and 100 is complete control; read-out: Plant response rating, Ryegrass, Italian. The gist of the method:
as §1

Test [11] concerns wheat (Triticum aestivum). Description: Test A postemergence. As to conditions: Triticum aestivum, post-emergence, 240 h, 125 g ai/ha, Postemergence; visual injury after approximately 10 d; 0 to 100 scale where 0 is no effect and 100 is complete control; read-out: Plant response rating, Wheat. The gist of the method:
as §1

Test [12] has as its system ragweed (common ragweed, Ambrosia elatior). Description: Test A postemergence. The conditions noted are these: Ambrosia artemisiifolia, post-emergence, 240 h, 125 g ai/ha, Postemergence; visual injury after approximately 10 d; 0 to 100 scale where 0 is no effect and 100 is complete control; read-out: Plant response rating, Ragweed. The gist of the method: as §1
The test system of another test is corn (Zea mays). Put plainly: Test A postemergence. As to conditions: Zea mays, post-emergence, 240 h, 125 g ai/ha, Postemergence; visual injury after approximately 10 d; 0 to 100 scale where 0 is no effect and 100 is complete control. The gist of the method:
as §1

For test [13], the system named is Kochia (Kochia scoparia). Description: Test A postemergence. As to conditions: Bassia scoparia, post-emergence, 240 h, 125 g ai/ha, Postemergence; visual injury after approximately 10 d; 0 to 100 scale where 0 is no effect and 100 is complete control; read-out: Plant response rating, Kochia. The gist of the method:
as §1

Test [14] deals with giant foxtail (Setaria faberii). Description: Test A postemergence. The conditions noted are these: Setaria faberi, post-emergence, 240 h, 125 g ai/ha, Postemergence; visual injury after approximately 10 d; 0 to 100 scale where 0 is no effect and 100 is complete control; read-out: Plant response rating, Foxtail, Giant. The gist of the method:
as §1

Each structure is given as a SMILES string. Where two headings read alike, the source gives them in different places.

Regarding `CN1C[C@H](c2cc(C(F)(F)F)cs2)[C@@H](C(=O)Nc2ccccc2F)C1=O` [Compound 962], the pest or weed control at 125 g/ha is 90% in test [1] (Preemergence, visual injury rating after approximately 10 d, read-out: Barnyardgrass plant response rating (0 to 100 scale, 0 is no effect, 100 is complete control)); 0% in test [2] (Preemergence, visual injury rating after approximately 10 d, read-out: Ryegrass, Italian plant response rating (0 to 100 scale, 0 is no effect, 100 is complete control)); 20% in test [3] (Preemergence, visual injury rating after approximately 10 d, read-out: Ragweed plant response rating (0 to 100 scale, 0 is no effect, 100 is complete control)); 0% in test [4] (Preemergence, visual injury rating after approximately 10 d, read-out: Pigweed plant response rating (0 to 100 scale, 0 is no effect, 100 is complete control)); 50% with Kochia (Kochia scoparia) [5] (Preemergence, visual injury rating after approximately 10 d, read-out: Kochia plant response rating (0 to 100 scale, 0 is no effect, 100 is complete control)); 90% in [6] (Preemergence, visual injury rating after approximately 10 d, read-out: Foxtail, Giant plant response rating (0 to 100 scale, 0 is no effect, 100 is complete control)). Further, the pest or weed control at 125 g/ha stood at 20% in [7]; 30% in test [8]; 90% in test [9]; 20% in test [10]; 0% in [12]; 20% in the test on Kochia (Kochia scoparia) [13]. Moreover, the pest or weed control at 125 g/ha in [14] worked out at 90%. In addition, the pest or weed control at 500 g/ha was determined as 90% in test [1] (preemergence, visual injury rating about 10 d after treatment, 0 to 100 scale (0 no effect, 100 complete control), read-out: Barnyardgrass plant response rating); 30% in test [2] (preemergence, visual injury rating about 10 d after treatment, 0 to 100 scale (0 no effect, 100 complete control), read-out: Ryegrass, Italian plant response rating); 30% in [3] (preemergence, visual injury rating about 10 d after treatment, 0 to 100 scale (0 no effect, 100 complete control), read-out: Ragweed plant response rating); 50% in test [4] (preemergence, visual injury rating about 10 d after treatment, 0 to 100 scale (0 no effect, 100 complete control), read-out: Pigweed plant response rating); 70% with Kochia (Kochia scoparia) [5] (preemergence, visual injury rating about 10 d after treatment, 0 to 100 scale (0 no effect, 100 complete control), read-out: Kochia plant response rating); 90% in test [6] (preemergence, visual injury rating about 10 d after treatment, 0 to 100 scale (0 no effect, 100 complete control), read-out: Foxtail, Giant plant response rating). Besides, the plant injury at 125 g/ha in test [11] came to 30%. In the test with corn (Zea mays), this compound returned a Corn plant response rating (crop injury, 0 = no effect, 100 = complete kill) at 125 g/ha of 0%.
As for `CN1CC[C@H](c2cccc(Cl)c2)[C@@H](C(=O)Nc2cccc(Cl)c2F)C1=O` [Compound 924], the pest or weed control at 125 g/ha in test [1] (preemergence, 0 to 100 scale where 0 is no effect and 100 is complete control, read-out: Barnyardgrass plant response rating) is 90%; in test [2] (preemergence, 0 to 100 scale where 0 is no effect and 100 is complete control, read-out: Ryegrass, Italian plant response rating) it was 20%; in [3] (preemergence, 0 to 100 scale where 0 is no effect and 100 is complete control, read-out: Ragweed plant response rating) it was 0%; in test [4] (preemergence, 0 to 100 scale where 0 is no effect and 100 is complete control, read-out: Pigweed plant response rating) it was 0%; in the test with Kochia (Kochia scoparia) [5] (preemergence, 0 to 100 scale where 0 is no effect and 100 is complete control, read-out: Kochia plant response rating), 0%; in test [6] (preemergence, 0 to 100 scale where 0 is no effect and 100 is complete control, read-out: Foxtail, Giant plant response rating) it was 90%. Also, the pest or weed control at 125 g/ha amounted to 0% in test [7]; 0% in test [8]; 90% in [9]; 0% in test [10]; 0% in test [12]; 0% in the test on Kochia (Kochia scoparia) [13]. The pest or weed control at 125 g/ha in test [14] came to 90%. Moreover, the pest or weed control at 500 g/ha in test [1] (Preemergence, visual injury vs untreated controls after approximately 10 d, read-out: Barnyardgrass plant response rating (0 to 100 scale where 0 is no effect and 100 is complete control)) is 90%; in test [2] (Preemergence, visual injury vs untreated controls after approximately 10 d, read-out: Ryegrass, Italian plant response rating (0 to 100 scale where 0 is no effect and 100 is complete control)), 70%; in test [3] (Preemergence, visual injury vs untreated controls after approximately 10 d, read-out: Ragweed plant response rating (0 to 100 scale where 0 is no effect and 100 is complete control)), 0%; in test [4] (Preemergence, visual injury vs untreated controls after approximately 10 d, read-out: Pigweed plant response rating (0 to 100 scale where 0 is no effect and 100 is complete control)), 0%; in the test on Kochia (Kochia scoparia) [5] (Preemergence, visual injury vs untreated controls after approximately 10 d, read-out: Kochia plant response rating (0 to 100 scale where 0 is no effect and 100 is complete control)) it was 0%; in test [6] (Preemergence, visual injury vs untreated controls after approximately 10 d, read-out: Foxtail, Giant plant response rating (0 to 100 scale where 0 is no effect and 100 is complete control)), 90%. The plant injury at 125 g/ha in test [11] turned out to be 0%. Moreover, the Corn plant response rating (crop injury, 0 = no effect, 100 = complete kill) at 125 g/ha in the test on corn (Zea mays) came to 0%.
